Assay results taken from PMC6417734 (PLoS ONE, 2019).
Where “and” joins values, the source holds several entries; their conditions need not be identical. Equal values may be shown once. Read-outs that look alike come from different tables or passages of the source.

What was measured:
[1] = Oral pharmacokinetic study in rats (plasma, UPHILIC-MS/MS, non-compartmental analysis); type: in vivo, wistar albino rats; conditions: for Kel: in h-1 (unit assumed); for AUClast / AUCtot: in ng·h/mL; for thalf: in h (unit assumed)
Experimental: Six healthy rats weighing between 180–220 g were received and maintained under standard laboratory conditions before the experiments. […] Blood samples (approx.0.5 ml) were collected at 0, 0.33, 0.66, 1, 2, 3, 5, 8, 12 and 24 h in lithium heparinized tubes after dosing. Plasma was separated by centrifugation for 8 min at 4000 rpm and stored at −80 °C till further analysis.
The non-compartmental model was used to calculate the pharmacokinetic parameters using WinNonlin software (Pharsight Co., Mountain View, CA, USA). The maximum plasma concentration (Cmax), time to achieve this (Tmax), area under curve zero to last and infinity (AUC0-24; AUC0-∞), half-life (T½), elimination rate constant (Kel) and mean residence time were measured. Statistical parameters like mean, standard deviation and % RSD were calculated by using MS-Excel 2013 (Microsoft).

SUA levels = conditions: ALP dose of 300 mg/day; ref [10]–[12]; cited from earlier work
[2] = Stability in spiked rat plasma under different storage conditions; type: physicochemical; conditions: for stability in spiked rat plasma, short term and long term storage: LQC and HQC, room temperature and -80 °C for 30 days, acceptance within ±15%; for stability of processed plasma samples in autosampler and after freeze-thaw cycles: autosampler for 24 h, three freeze-thaw cycles; for Processed samples (24 h) Accuracy (%): processed rat plasma samples, autosampler at 10 °C; for long term (1 month) Accuracy (%) / Short term (8 h) Accuracy (%) / Freeze/Thaw (3 cycle) Accuracy (%): spiked rat plasma; for long term (1 month) Accuracy (%): -80 °C for 30 days; for Short term (8 h) Accuracy (%): room temperature; for Freeze/Thaw (3 cycle) Accuracy (%): three cycle from -80 °C to room temperature
Experimental: The short-term (at room temperature for 8 h); post preparation (in autosampler at 10 °C for 24 h), freeze-thaw (three cycle from ─80 °C to room temperature) and long-term (─80 °C for 30 days) stabilities were determined. All stabilities results were measured against freshly spiked CCs and acceptance were limited to be within ±15%.

[3] = Mean of six rats (supplement), oral ALP 20 mg/kg and LES 15 mg/kg
[4] = Wistar albino, rat, plasma, po, 20 mg/kg, Mean line of six rats (supplement), oral ALP 20 mg/kg and LES 15 mg/kg, read-out: Tmax
[5] = Wistar albino, rat, plasma, po, 20 mg/kg, Mean of six rats (supplement), oral ALP 20 mg/kg and LES 15 mg/kg
[6] = Wistar albino, rat, plasma, po, 20 mg/kg, Mean of six rats (supplement), oral ALP 20 mg/kg and LES 15 mg/kg, read-out: AUClast
[7] = Wistar albino, rat, plasma, po, 20 mg/kg, Mean of six rats (supplement), oral ALP 20 mg/kg and LES 15 mg/kg, read-out: Cmax
[8] = Wistar albino, rat, plasma, po, 20 mg/kg, Mean of six rats (supplement), oral ALP 20 mg/kg and LES 15 mg/kg, read-out: MRT
[9] = Wistar albino, rat, plasma, po, 20 mg/kg, individual animal (rats R1-R6), oral ALP 20 mg/kg and LES 15 mg/kg
[10] = Wistar albino, rat, plasma, po, 20 mg/kg, individual animal (rats R1-R6), oral ALP 20 mg/kg and LES 15 mg/kg, read-out: AUClast
[11] = Wistar albino, rat, plasma, po, 20 mg/kg, individual animal (rats R1-R6), oral ALP 20 mg/kg and LES 15 mg/kg, read-out: Cmax
[12] = Wistar albino, rat, plasma, po, 20 mg/kg, individual animal (rats R1-R6), oral ALP 20 mg/kg and LES 15 mg/kg, read-out: MRT
[13] = Wistar albino, rat, plasma, po, 20 mg/kg, rats, oral ALP 20 mg/kg, read-out: Tmax
[14] = Wistar albino, rat, plasma, po, rat plasma, oral co-administration of ALP 20 mg/kg and LES 15 mg/kg, mean ± SD, six rats, read-out: Cmax
[15] = Wistar albino, rat, plasma, po, rat plasma, oral co-administration of ALP 20 mg/kg and LES 15 mg/kg, mean ± SD, read-out: AUC0-24
[16] = Wistar albino, rat, plasma, po, rat plasma, oral co-administration of ALP 20 mg/kg and LES 15 mg/kg, mean ± SD, read-out: MRT
[17] = Wistar albino, rat, plasma, po, rat plasma, oral co-administration of ALP 20 mg/kg and LES 15 mg/kg, six rats, read-out: Tmax
[18] = individual animal (rats R1-R6), oral ALP 20 mg/kg and LES 15 mg/kg, in h
[19] = individual animal (rats R1-R6), oral ALP 20 mg/kg and LES 15 mg/kg
[20] = individual animal (rats R1-R6), oral ALP 20 mg/kg and LES 15 mg/kg, in ng/mL
[21] = HQC nominal value (ALP 7000, OXP 10000, LES 8000 ng/mL)
[22] = LQC nominal value (ALP 70, OXP 100, LES 80 ng/mL)

| SMILES | Kel [1, 3] | Tmax [1, 4] | Cmax [1, 14] | AUC(0-t) [1, 15] | MRT [1, 16] | Tmax [1, 17] | MRT [1, 18] | Cmax [1, 20] | AUClast [1, 19] | AUCtot [1, 19] | stability in spiked rat plasma, short term and long term storage [2] | stability of processed plasma samples in autosampler and after freeze-thaw cycles [2] | Processed samples (24 h) Accuracy (%) [2, 21] | Processed samples (24 h) Accuracy (%) [2, 22] | long term (1 month) Accuracy (%) [2, 21] | Short term (8 h) Accuracy (%) [2, 21] | Freeze/Thaw (3 cycle) Accuracy (%) [2, 21] | long term (1 month) Accuracy (%) [2, 22] | Short term (8 h) Accuracy (%) [2, 22] | Freeze/Thaw (3 cycle) Accuracy (%) [2, 22] | further results |
| --- | --- | --- | --- | --- | --- | --- | --- | --- | --- | --- | --- | --- | --- | --- | --- | --- | --- | --- | --- | --- | --- |
| Oc1ncnc2[nH]ncc12 [ALP, Allopurinol] | 0.5391 | 0.66 h | 2030 ± 509 ng/mL | 3510 ± 571 ng·h/mL | 1.98 ± 0.32 h | 0.66 h | 1.607 and 2.233 and 2.477 and 1.777 and 1.801 | 1667.45 and 2378.66 and 2694.26 and 2321.62 and 1731.2 | 2635.21 and 3641.95 and 4404.97 and 3470.35 and 3598.67 | 2743.88 and 3774.36 and 4653.35 and 3656.48 and 3742.26 | acceptable limits | stable | 99.34% | 96.54% | 88.71% | 90.84% | 100.54% | 87.23% | 93.08% | 108.60% | AUC [1, 5]: 3660 ng·h/mL; AUC(0-t) [1, 6]: 3510 ng·h/mL; Cmax [1, 7]: 2030 ng/mL; MRT [1, 8]: 1.99 h; AUC [1, 9]: 3390 ng·h/mL; AUC(0-t) [1, 10]: 3320 ng·h/mL; Cmax [1, 11]: 1380 ng/mL; MRT [1, 12]: 2.04 h; Tmax ([1]; Wistar albino, rat, plasma, po, 20 mg/kg, individual animal (rats R1-R6), oral ALP 20 mg/kg and LES 15 mg/kg, read-out: Tmax): 0.33 h; Tmax [1, 13]: 0.66 h; Kel [1, 19]: 0.3461; detectability in plasma after administration ([1]; rats, post administration of 20 mg/kg of ALP): undetectable after 8 h; patients who do not achieve sustained reductions in SUA levels (< 6 mg/dL) (SUA levels): > 50% |
| O=c1[nH]c(=O)c2c[nH]nc2[nH]1 [OXP, oxypurinol] | 0.1191 | 2 h | 7500 ± 156 ng/mL | 44800 ± 373 ng·h/mL | 7.58 ± 1.52 h | 2 h | 6.956 and 5.837 and 6.059 and 8.731 and 9.5786 | 7192.39 and 10535.3 and 7573.56 and 6585.93 and 6831.19 | 49418.6 and 48647.7 and 44044.7 and 42639.7 and 44576.2 | 50759.5 and 50350.9 and 45393.1 and 45993.3 and 50026.1 | acceptable limits | stable | 102.65% | 104.72% | 91.04% | 95.12% | 92.67% | 92.43% | 96.85% | 102.55% | AUC [1, 5]: 47400 ng·h/mL; AUC(0-t) [1, 6]: 44800 ng·h/mL; Cmax [1, 7]: 7500 ng/mL; MRT [1, 8]: 7.58 h; AUC [1, 9]: 41900 ng·h/mL; AUC(0-t) [1, 10]: 39500 ng·h/mL; Cmax [1, 11]: 6250 ng/mL; MRT [1, 12]: 8.33 h; Tmax [1, 13]: 2 h; Tmax [1, 18]: 3 and 0.66 and 1 |
| O=C(O)CSc1nnc(Br)n1-c1ccc(C2CC2)c2ccccc12 [LES, Lesinurad] | 0.09441 | – | 8270 ± 191 ng/mL | 65910 ± 139 ng·h/mL | 12.4 ± 4.51 h | 1.5 h | 20.1145 and 8.709 and 12.6844 and 8.471 and 9.848 and 14.9899 | 5494.01 and 8320.88 and 6878.96 and 11031.4 and 8808.81 and 9091.69 | 64836.4 and 61847.4 and 85561.6 and 56410.3 and 78552.6 | 68738 and 73776.1 and 90181.7 and 60657.3 and 99665.6 | acceptable limits | stable | 97.01% | 112.54% | 88.59% | 95.12% | 90.13% | 89.81% | 91.26% | 94.8% | thalf [1, 3]: 8.497; Tmax ([1]; Wistar albino, rat, plasma, po, 15 mg/kg, Mean line of six rats (supplement), oral ALP 20 mg/kg and LES 15 mg/kg, read-out: Tmax): 1.5 h; AUC ([1]; Wistar albino, rat, plasma, po, 15 mg/kg, Mean of six rats (supplement), oral ALP 20 mg/kg and LES 15 mg/kg): 77100 ng·h/mL; AUC(0-t) ([1]; Wistar albino, rat, plasma, po, 15 mg/kg, Mean of six rats (supplement), oral ALP 20 mg/kg and LES 15 mg/kg, read-out: AUClast): 65900 ng·h/mL; Cmax ([1]; Wistar albino, rat, plasma, po, 15 mg/kg, Mean of six rats (supplement), oral ALP 20 mg/kg and LES 15 mg/kg, read-out: Cmax): 8270 ng/mL; MRT ([1]; Wistar albino, rat, plasma, po, 15 mg/kg, Mean of six rats (supplement), oral ALP 20 mg/kg and LES 15 mg/kg, read-out: MRT): 12.5 h; AUC ([1]; Wistar albino, rat, plasma, po, 15 mg/kg, individual animal (rats R1-R6), oral ALP 20 mg/kg and LES 15 mg/kg): 69800 ng·h/mL; AUC(0-t) ([1]; Wistar albino, rat, plasma, po, 15 mg/kg, individual animal (rats R1-R6), oral ALP 20 mg/kg and LES 15 mg/kg, read-out: AUClast): 48200 ng·h/mL; Tmax [1, 18]: 1 and 3 and 2 and 5 and 0.66; thalf [1, 19]: 13.589 and 5.574 and 9.1146 and 5.126 and 5.707 and 11.8685; Kel [1, 19]: 0.05101 and 0.1244 and 0.07605 and 0.1352 and 0.1214 and 0.0584; ratios of AUC (AUC0-24/ AUC0-∞) ([1]; rats, oral ALP 20 mg/kg and LES 15 mg/kg): ≥ 85% |
